Test results from US20080221060A1, “Therapeutic Compounds” (priority 2004, published 2008).
Where “and” joins values, the source holds several entries; their conditions need not be identical. Equal entries are not always repeated. Where two headings read alike, the source gives them in different places.

Key:
[1] = biological target: adenosine A2A receptor (UniProt P30543); assay: EC50 at the adenosine A2A receptor; type: biochemical
Text: (§1) For the avoidance of doubt, the EC50 value of a compound is defined herein as the concentration of the compound that provokes a receptor response halfway between the baseline receptor response and the maximum receptor response (as determined, for example, using a dose-response curve).
(§2) The EC50 value should be determined under standard conditions (balanced salt solutions buffered to pH 7.4). For EC50 determinations using isolated membranes, cells and tissues this would be in buffered salt solution at pH 7.4 (e.g. cell culture medium), for example as in Daly et al, Pharmacol. (1993) 46, 91-100), or preferably as in Tilburg et al (J. Med. Chem. (2002) 45, 91-100). The EC50 could also be determined in vivo by measuring adenosine receptor mediated responses in a normal healthy animal, or even in a tissue perfused under normal conditions (i.e. oxygenated blood, or oxygenated isotonic media, also buffered at pH 7.4) in a normal healthy animal.

[2] = biological target: adenosine receptors (Rattus norvegicus, UniProt P30543); assay: EC50 at adenosine receptors measured at pH 7.4; type: biochemical; conditions: measured at pH7.4
Chain of adenosine receptors (P30543 whole entry): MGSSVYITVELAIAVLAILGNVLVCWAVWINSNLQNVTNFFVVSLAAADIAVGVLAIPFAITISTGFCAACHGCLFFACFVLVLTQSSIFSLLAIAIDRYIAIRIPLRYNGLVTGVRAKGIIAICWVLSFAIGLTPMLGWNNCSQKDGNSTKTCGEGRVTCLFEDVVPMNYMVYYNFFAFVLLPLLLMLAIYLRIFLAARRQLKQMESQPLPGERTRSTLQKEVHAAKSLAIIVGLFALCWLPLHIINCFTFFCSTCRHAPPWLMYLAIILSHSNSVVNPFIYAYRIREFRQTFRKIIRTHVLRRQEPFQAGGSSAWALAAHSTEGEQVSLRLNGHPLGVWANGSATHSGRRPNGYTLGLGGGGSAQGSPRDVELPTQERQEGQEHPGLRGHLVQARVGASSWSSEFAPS
Text: as §1, §2

[3] = blood pressure and heart rate in rats (radiotelemetry); type: in vivo, rat
Text: An implantable radiotelemetry device was placed in the abdominal cavity of 6 rats per group. The pressure catheter of the device was inserted in the abdominal aorta and two electrodes tunnelised under the skin in a lead II position (left side of abdominal cavity/right shoulder). Individual rats were placed in their own cage on a radioreceptor (DSI) for data acquisition. A: blood pressure; B: heart rate.

[4] = test system: carrageenan (CGN) induced thermal hyperalgesia; assay: carrageenan induced thermal hyperalgesia (CITH); type: in vivo; conditions: 0.624 mg/kg p.o.; indomethacin 3 mg/kg po as comparator
Method: A. […] Carrageenan (2%, 10 microlitres) was administered into the right hind paw. A heat source was placed close to the treated and untreated hind paws, and the difference in the paw withdrawal latencies is shown. Spongosine was administered at the same time as carrageenan.

[5] = test system: chronic constriction injury model of neuropathic pain; assay: thermal hyperalgesia, chronic constriction injury of the rat sciatic nerve; type: in vivo; conditions: rat CCI, 0.624 mg/kg p.o.
Text: After approximately two weeks the rats developed thermal hyperalgesia in the operated leg as judged by the difference in paw withdrawal latencies of the right and left paws.

[6] = test system: chronic constriction injury model of neuropathic pain; assay: static allodynia, chronic constriction injury of the rat sciatic nerve; type: in vivo; conditions: rat CCI
Text: The total dose administered is shown on the horizontal axis, and the paw withdrawal threshold (PWT) on the vertical axis.

[7] = test system: human macrophage cell line U937; assay: LPS induced TNF alpha release in U937 cells; type: cell-based; conditions: 100 ng/ml LPS, 3 hours
Method: Cells of human macrophage cell line U937 were grown in suspension to 500,000 cells/ml, plated out into 48 well plates, treated with 20 ng/ml PMA and incubated for 8 hours. Cells adhered to well bottoms and were washed and allowed to recover for 36 hours before use. […] After 3 hours the cell supernatants were assayed for TNF alpha using fluorescence labeled ELISA kits.

[8] = plasma concentrations after single oral dosing in human volunteers; type: in vivo
[9] = tachycardia by 12 lead ECGs in human volunteers; type: in vivo
Method: Tachycardia was determined using 12 lead ECGs.

[10] = test system: carrageenan (CGN) induced inflammation; assay: carrageenan induced paw inflammation (plethysmometry); type: in vivo; conditions: rat, 62.4 and 624 μg/kg i.p.; indomethacin 3 mg/kg po as comparator
Method: Carrageenan (2%, 10 microlitres) was administered into the right hind paw of a rat, and the paw volume assessed by plethysomometry. Spongosine was administered at the same time as carrageenan.

[11] = test system: carageenan-induced inflammation; conditions: rats, 20 mg/kg po; cited from earlier work
[12] = 20 mg/kg po; cited from earlier work
[13] = biological target: T1, rat adenosine A1 receptor (Rattus norvegicus, UniProt P25099); conditions: cited from earlier work
T1 sequence (P25099 1-326): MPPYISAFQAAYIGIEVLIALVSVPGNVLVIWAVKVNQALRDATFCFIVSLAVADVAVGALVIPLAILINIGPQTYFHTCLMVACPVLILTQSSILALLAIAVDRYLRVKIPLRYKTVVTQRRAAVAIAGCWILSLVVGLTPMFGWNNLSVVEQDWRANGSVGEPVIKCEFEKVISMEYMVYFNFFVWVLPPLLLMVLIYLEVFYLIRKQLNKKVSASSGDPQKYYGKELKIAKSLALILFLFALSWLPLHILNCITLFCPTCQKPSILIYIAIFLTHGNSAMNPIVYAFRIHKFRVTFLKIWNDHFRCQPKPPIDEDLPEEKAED

[14] = biological target: rat A2A receptor (Rattus norvegicus, UniProt P30543); conditions: read-out: EC50 for stimulation of the rat A2A receptor; cited from earlier work
Chain of rat A2A receptor (P30543 whole entry): as the sequence (P30543 whole entry) above

[15] = biological target: T2, adenosine A1 receptor (Cavia porcellus, UniProt P47745); conditions: guinea pig; read-out: EC50, adenosine A1 receptor, isolated heart preparation; cited from earlier work
T2 construct: host or cells: guinea pig isolated heart
T2 sequence (P47745 1-326): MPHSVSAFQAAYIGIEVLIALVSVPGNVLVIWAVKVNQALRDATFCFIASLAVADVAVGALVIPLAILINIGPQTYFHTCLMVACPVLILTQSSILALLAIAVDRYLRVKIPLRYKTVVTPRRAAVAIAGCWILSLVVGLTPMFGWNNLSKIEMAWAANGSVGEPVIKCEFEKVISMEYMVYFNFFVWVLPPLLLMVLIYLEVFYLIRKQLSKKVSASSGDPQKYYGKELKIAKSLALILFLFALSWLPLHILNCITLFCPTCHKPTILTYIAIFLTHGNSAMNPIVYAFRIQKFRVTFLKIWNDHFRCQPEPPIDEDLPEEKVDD

[16] = biological target: T3, adenosine A2A receptor (Cavia porcellus, UniProt P46616); conditions: guinea pig; read-out: EC50, adenosine A2A receptor, isolated heart preparation; cited from earlier work
T3 construct: host or cells: guinea pig isolated heart
T3 sequence (P46616 whole entry): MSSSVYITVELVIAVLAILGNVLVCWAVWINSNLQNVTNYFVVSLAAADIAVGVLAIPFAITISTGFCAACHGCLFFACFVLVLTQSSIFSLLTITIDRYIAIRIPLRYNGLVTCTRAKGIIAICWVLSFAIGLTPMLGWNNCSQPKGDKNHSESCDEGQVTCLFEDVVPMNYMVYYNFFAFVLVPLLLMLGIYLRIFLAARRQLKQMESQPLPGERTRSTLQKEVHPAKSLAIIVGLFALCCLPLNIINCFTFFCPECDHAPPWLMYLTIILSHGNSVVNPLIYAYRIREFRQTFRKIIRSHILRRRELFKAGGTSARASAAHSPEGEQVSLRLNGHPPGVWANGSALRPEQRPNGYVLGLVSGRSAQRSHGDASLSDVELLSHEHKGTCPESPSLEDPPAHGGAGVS

[17] = biological target: adenosine receptors (rat striatal membranes, [3H]-CGS21680) (Rattus norvegicus, UniProt P30543); assay: Ki from displacement of [3H]-CGS21680 in rat striatal membranes at pH 5.5 and pH 7.4; type: binding; set-up: from tissue; host or cells: rat striatum (membranes); conditions: for Ki: 2 nM [3H]-CGS21680, 90 minutes at 22° C.
Chain of adenosine receptors (rat striatal membranes, [3H]-CGS21680) (P30543 whole entry): as the sequence (P30543 whole entry) above

EC50 [1]: ~1 µM
EC50 [2]: 3.03 µM and 3 µM
Cmax ([8]; single oral dose 0.2 mg): 10 ± 5 nM
Cmax ([8]; single oral dose 0.8 mg): 40 ± 20 nM
Cmax ([8]; single oral dose 3.5 mg): 130 ± 40 nM
Cmax ([8]; single oral dose 10.5 mg): 300 ± 40 nM
Cmax ([8]; single oral dose 21 mg): 500 ± 100 nM
Cmax ([8]; single oral dose 28 mg): 600 ± 100 nM
Ki ([17]; pH 5.5, read-out: (Ki) nM (pH 5.5)): 1.5 nM
Ki ([17]; pH 7.4, read-out: (Ki) nM (pH 7.4)): 1300 nM
affinity for adenosine receptors at pH below pH 7.4 ([17]; pH below pH 7.4 compared with pH 7.4): increased affinity
SMILES: COc1nc(N)c2ncn([C@@H]3O[C@H](CO)[C@@H](O)[C@H]3O)c2n1 [Compound 1, 2-methoxyadenosine]
effect on blood pressure ([3]; 62.4 and 624 μg/kg i.p.): do not affect blood pressure
effect on blood pressure ([3]; normal rats, 0.624 mg/kg p.o.): no significant effect
effect on heart rate ([3]; normal rats, 0.624 mg/kg p.o.): no significant effect
inhibition of carrageenan induced thermal hyperalgesia [4]: inhibits carrageenan (CGN) induced thermal hyperalgesia (CITH) with comparable efficacy to indomethacin
inhibition of thermal hyperalgesia (paw withdrawal latencies) [5]: inhibits thermal hyperalgesia
efficacy compared with carbamazepine ([5]; CBZ 100 mg/kg s.c.): as, or more, effective than carbamazepine
inhibition of static allodynia (paw withdrawal threshold) ([6]; […] p.o., presence and absence of naloxone (1 mg/kg s.c.)): inhibits static allodynia
inhibition of static allodynia (paw withdrawal threshold) ([6]; p.o., dose response): inhibit static allodynia
inhibition of LPS induced TNF alpha release [7]: inhibits LPS induced TNF release
Tachycardia side effect ([9]; single oral dose 0.2 mg): No
Tachycardia side effect ([9]; single oral dose 0.8 mg): No
Tachycardia side effect ([9]; single oral dose 3.5 mg): No
Tachycardia side effect ([9]; single oral dose 10.5 mg): No
Tachycardia side effect ([9]; single oral dose 21 mg): No
Tachycardia side effect ([9]; single oral dose 28 mg): Yes
inhibition of carrageenan induced inflammation (paw volume) [10]: inhibits carrageenan (CGN) induced inflammation with comparable efficacy to indomethacin
inhibition of carageenan-induced inflammation [11]: 25%
reduction in heart rate [12]: 25%
reduction in mean blood pressure [12]: 41%
Kd [13]: 0.34 µM
EC50 [14]: 3 µM
EC50 [15]: 10 µM
EC50 [16]: 0.7 µM
